Assay results as given in patent US20240368177A1, “5-AMINO-6,8-DIHYDRO-1H-FURO[3,4-d]PYRROLO[3,2-b]PYRIDINE-2-CARBOXAMIDE DERIVATIVES AS MTA-COOPERATIVE INHIBITORS OF PRMT5” (BeiGene Switzerland GmbH, priority 2023, published 2024).

Experiments:
[1] = tested on: HCT116-MTAP-KO; test: Cell killing in HCT116 isogenic pair (Cell Titer-Glo viability), MTAP knock-out cells; format: cell-based, human; conditions: Homo sapiens, HCT-116, 144 h, 6 days incubation, 0-10 μM, * = more than 50% viability inhibition at tested concentration without a full curve
How it was run: (§1)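 HCT116 MTAP-knockout or mock-knockout (MTAP wildtype) cells in RPMI 1640 with 10% FBS were seeded overnight, then exposed to test compound at 0–10 μM final for 6 days at 37° C. Viability was measured by CellTiter-Glo luminescence and IC50 was fitted.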

[2] = tested on: HCT116-mock-RNA-KO; test: Cell killing in HCT116 isogenic pair (Cell Titer-Glo viability), mock knock-out cells with MTAP wildtype genotype; format: cell-based, human; conditions: Homo sapiens, HCT-116, 144 h, 6 days incubation, 0-10 μM
How it was run: as §1

SMILES | IC50 [1] | IC50 [2]
C[C@H](c1ncc(C2CC2)cc1F)N(C)C(=O)c1cc2nc(N)c3c(c2[nH]1)CO[C@@H]3C [Example 142, (R)-5-amino-N—((R)-1-(5-cyclopropyl-3-fluoropyridin-2-yl)ethyl)-N,6-dimethyl-6,8-dihydro-1H-furo[3,4-d]pyrrolo[3,2-b]pyridine-2-carboxamide] | 2.6 nM | 477 nM
CCN(C(=O)c1cc2nc(N)c3c(c2[nH]1)COC3)[C@H](C)c1ncc(Br)cc1F [Example 143, (R)-5-amino-N-(1-(5-bromo-3-fluoropyridin-2-yl)ethyl)-N-ethyl-6,8-dihydro-1H-furo[3,4-d]pyrrolo[3,2-b]pyridine-2-carboxamide] | 11 nM | 1380 nM
CCN(C(=O)c1cc2nc(N)c3c(c2[nH]1)COC3)[C@@H](C)c1ncc(Br)cc1F [Example 144, (S)-5-amino-N-(1-(5-bromo-3-fluoropyridin-2-yl)ethyl)-N-ethyl-6,8-dihydro-1H-furo[3,4-d]pyrrolo[3,2-b]pyridine-2-carboxamide] | 543 nM | > 10000 nM
C[C@H](c1ccc(C(F)(F)F)cc1F)N(C)C(=O)c1cc2nc(N)c3c(c2[nH]1)COC3 [Example 145, (R)-5-amino-N-(1-(2-fluoro-4-(trifluoromethyl)phenyl)ethyl)-N-methyl-6,8-dihydro-1H-furo[3,4-d]pyrrolo[3,2-b]pyridine-2-carboxamide] | 26 nM | 3430 nM
C[C@@H](c1ccc(C(F)(F)F)cc1F)N(C)C(=O)c1cc2nc(N)c3c(c2[nH]1)COC3 [Example 146, (S)-5-amino-N-(1-(2-fluoro-4-(trifluoromethyl)phenyl)ethyl)-N-methyl-6,8-dihydro-1H-furo[3,4-d]pyrrolo[3,2-b]pyridine-2-carboxamide] | 316 nM | > 10000 nM
C[C@H]1OCc2c1c(N)nc1cc(C(=O)N(C)[C@@H](C)c3ccc(C(F)(F)F)cc3F)[nH]c21 [Example 147, (R)-5-amino-N—((S)-1-(2-fluoro-4-(trifluoromethyl)phenyl)ethyl)-N,6-dimethyl-6,8-dihydro-1H-furo[3,4-d]pyrrolo[3,2-b]pyridine-2-carboxamide] | 1230 nM | 5420 nM
C[C@H](c1ccc(C(F)(F)F)cc1F)N(C)C(=O)c1cc2nc(N)c3c(c2[nH]1)CO[C@@H]3C [Example 148, (R)-5-amino-N—((R)-1-(2-fluoro-4-(trifluoromethyl)phenyl)ethyl)-N,6-dimethyl-6,8-dihydro-1H-furo[3,4-d]pyrrolo[3,2-b]pyridine-2-carboxamide] | 19 nM | 2440 nM
C[C@@H](c1c(F)cc(C(F)(F)F)cc1F)N(C)C(=O)c1cc2nc(N)c3c(c2[nH]1)COC3 [Example 149, (S)-5-amino-N-(1-(2,6-difluoro-4-(trifluoromethyl)phenyl)ethyl)-N-methyl-6,8-dihydro-1H-furo[3,4-d]pyrrolo[3,2-b]pyridine-2-carboxamide] | 2680 nM | > 10000 nM
C[C@H](c1c(F)cc(C(F)(F)F)cc1F)N(C)C(=O)c1cc2nc(N)c3c(c2[nH]1)COC3 [Example 150, (R)-5-amino-N-(1-(2,6-difluoro-4-(trifluoromethyl)phenyl)ethyl)-N-methyl-6,8-dihydro-1H-furo[3,4-d]pyrrolo[3,2-b]pyridine-2-carboxamide] | 32 nM | 2790 nM
Cc1cc([C@@H](C)N(C)C(=O)c2cc3nc(N)c4c(c3[nH]2)COC4)c(F)cc1C1CC1 [Example 151, (R)-5-amino-N-(1-(4-cyclopropyl-2-fluoro-5-methylphenyl)ethyl)-N-methyl-6,8-dihydro-1H-furo[3,4-d]pyrrolo[3,2-b]pyridine-2-carboxamide] | 85 nM | > 10000 nM
Cc1cc([C@H](C)N(C)C(=O)c2cc3nc(N)c4c(c3[nH]2)COC4)c(F)cc1C1CC1 [Example 152, (S)-5-amino-N-(1-(4-cyclopropyl-2-fluoro-5-methylphenyl)ethyl)-N-methyl-6,8-dihydro-1H-furo[3,4-d]pyrrolo[3,2-b]pyridine-2-carboxamide] | 1280 nM | > 10000 nM
C[C@H](c1ncc(C2CC2)cc1F)N(C(=O)c1cc2nc(N)c3c(c2[nH]1)COC3)C1CCC1 [Example 153, (R)-5-amino-N-cyclobutyl-N-(1-(5-cyclopropyl-3-fluoropyridin-2-yl)ethyl)-6,8-dihydro-1H-furo[3,4-d]pyrrolo[3,2-b]pyridine-2-carboxamide] | 10 nM | 610 nM
C[C@@H](c1ncc(C2CC2)cc1F)N(C(=O)c1cc2nc(N)c3c(c2[nH]1)COC3)C1CCC1 [Example 154, (S)-5-amino-N-cyclobutyl-N-(1-(5-cyclopropyl-3-fluoropyridin-2-yl)ethyl)-6,8-dihydro-1H-furo[3,4-d]pyrrolo[3,2-b]pyridine-2-carboxamide] | 1630 nM | 8520 nM
C[C@H](c1ncc(C(F)(F)F)cc1F)N(C(=O)c1cc2nc(N)c3c(c2[nH]1)COC3)C1CCC1 [Example 155, (R)-5-amino-N-cyclobutyl-N-(1-(3-fluoro-5-(trifluoromethyl)pyridin-2-yl)ethyl)-6,8-dihydro-1H-furo[3,4-d]pyrrolo[3,2-b]pyridine-2-carboxamide] | 19 nM | 2250 nM
C[C@@H](c1ncc(C(F)(F)F)cc1F)N(C(=O)c1cc2nc(N)c3c(c2[nH]1)COC3)C1CCC1 [Example 156, (S)-5-amino-N-cyclobutyl-N-(1-(3-fluoro-5-(trifluoromethyl)pyridin-2-yl)ethyl)-6,8-dihydro-1H-furo[3,4-d]pyrrolo[3,2-b]pyridine-2-carboxamide] | 523 nM | > 10000 nM
COCCN(C(=O)c1cc2nc(N)c3c(c2[nH]1)COC3)[C@H](C)c1ncc(C(F)(F)F)cc1F [Example 157, (R)-5-amino-N-(1-(3-fluoro-5-(trifluoromethyl)pyridin-2-yl)ethyl)-N-(2-methoxyethyl)-6,8-dihydro-1H-furo[3,4-d]pyrrolo[3,2-b]pyridine-2-carboxamide] | 64 nM | > 10000 nM
COCCN(C(=O)c1cc2nc(N)c3c(c2[nH]1)COC3)[C@@H](C)c1ncc(C(F)(F)F)cc1F [Example 158, (S)-5-amino-N-(1-(3-fluoro-5-(trifluoromethyl)pyridin-2-yl)ethyl)-N-(2-methoxyethyl)-6,8-dihydro-1H-furo[3,4-d]pyrrolo[3,2-b]pyridine-2-carboxamide] | 2020 nM | > 10000 nM
C[C@H](c1ccc(C2CC2)cn1)N(C(=O)c1cc2nc(N)c3c(c2[nH]1)COC3)C1CCC1 [Example 159, (R)-5-amino-N-cyclobutyl-N-(1-(5-cyclopropylpyridin-2-yl)ethyl)-6,8-dihydro-1H-furo[3,4-d]pyrrolo[3,2-b]pyridine-2-carboxamide] | 36 nM | 2580 nM
C[C@@H](c1ccc(C2CC2)cn1)N(C(=O)c1cc2nc(N)c3c(c2[nH]1)COC3)C1CCC1 [Example 160, (S)-5-amino-N-cyclobutyl-N-(1-(5-cyclopropylpyridin-2-yl)ethyl)-6,8-dihydro-1H-furo[3,4-d]pyrrolo[3,2-b]pyridine-2-carboxamide] | 598 nM | > 10000 nM
